One assay has as its system diamondback moth larvae. Description: Leaf dip test, diamondback moth larvae. Type of assay: in vivo. As to conditions: Plutella xylostella, foliar, Bta 2.7 ppm, chlorantraniliprole 0.0009 ppm, mixture 2.7 ppm + 0.0009 ppm, read-out: % Efficacy. As to the method: (§1) For these tests, standardized laboratory leaf dip methods were used to inoculate plant material with treatment(s). Dry, treated leaves were placed into Petri dishes (100×25 mm) containing filter paper wetted with 500 μl of distilled H2O (“dH2O”). Each dish was then infested with between 5 and 10 larvae, dependent on species. Efficacy ratings were taken at specified intervals. Synergy ratings were calculated for each test.
In this study, the response of diamondback moth larvae to synergistic amounts of Bacillus thuringiensis subsp. aizawai (“Bta”) and chlorantraniliprole was observed.
(§2) % Cexp=A+B−(AB/100), where % Cexp is the expected efficacy and “in which A and B are the control levels given by the single [insecticides]. If the ratio between the experimentally observed efficacy of the mixture Cobs and the expected efficacy of the mixture is greater than 1, synergistic interactions are present in the mixture.” (Gisi, Synergisitic Interaction of Fungicides in Mixtures, The American Phytopathological Society, 86:11, 1273-1279, 1996). Adopting a conservative approach, Applicant determined synergy to be present at ratios of ≧1.15.
(§3) Bacillus thuringiensis subsp. aizawai was applied at a concentration of 2.7 ppm (2.7 μg/ml). Chlorantraniliprole was applied at a concentration of 0.0009 ppm (0.0009 μg/ml). […]

The next assay has as its system beet armyworm larvae. Description: Leaf dip test, beet armyworm larvae. It is filed as in vivo. Particulars: Spodoptera exigua, foliar, Bta 2.7 ppm, chlorantraniliprole 0.0009 ppm, mixture 2.7 ppm + 0.0009 ppm, read-out: % Efficacy. As to the method:
as §1, §2
In this study, the response of beet armyworm larvae to amounts of Bacillus thuringiensis subsp. aizawai and chlorantraniliprole was observed.
as §3

The subject of a further assay is cabbage looper larvae. Put plainly: Leaf dip test, cabbage looper larvae. It is filed as in vivo. Particulars: Trichoplusia ni, foliar, Bta 2.7 ppm, chlorantraniliprole 0.0009 ppm, mixture 2.7 ppm + 0.0009 ppm, read-out: % Efficacy. As to the method: as §1, §2
In this study, the response of cabbage looper larvae to amounts of Bacillus thuringiensis subsp. aizawai and chlorantraniliprole was observed.
as §3

The subject of another assay is sugarcane borer larvae. Description: Leaf dip test, sugarcane borer larvae. It is filed as in vivo. As to conditions: foliar, Bta 27 ppm, chlorantraniliprole 0.0009 ppm, mixture 27 ppm + 0.0009 ppm, read-out: % Efficacy. As to the method:
as §1, §2
In this study, the response of sugarcane borer larvae to amounts of Bacillus thuringiensis subsp. aizawai and chlorantraniliprole was observed.
(§4) Bacillus thuringiensis subsp. aizawai was applied at a concentration of 27 ppm (27 μg/ml). Chlorantraniliprole was applied at a concentration of 0.0009 ppm (0.0009 μg/ml). […]

The test system of assay [1] is southwestern corn borer larvae. Put plainly: Leaf dip test, southwestern corn borer larvae. It is filed as in vivo, Diatraea grandiosella. As to conditions: foliar, Bta 2.7 ppm, chlorantraniliprole 0.0009 ppm, mixture 2.7 ppm + 0.0009 ppm, read-out: % Efficacy. As to the method: as §1, §2
In this study, the response of southwestern corn borer larvae to amounts of Bacillus thuringiensis subsp. aizawai and chlorantraniliprole was observed.
as §3

The next assay relates to soybean looper larvae. Put plainly: Leaf dip test, soybean looper larvae. Particulars: foliar, Bta 27 ppm, chlorantraniliprole 0.0009 ppm, mixture 27 ppm + 0.0009 ppm, read-out: % Efficacy. Type of assay: in vivo, Chrysodeixis includens. As to the method: as §1, §2
In this study, the response of soybean looper larvae to amounts of Bacillus thuringiensis subsp. aizawai and chlorantraniliprole was observed.
as §4

The next assay deals with corn earworm larvae. Description: Leaf dip test, corn earworm larvae. Type of assay: in vivo. As to conditions: Helicoverpa zea, foliar, Bta 27 ppm, chlorantraniliprole 0.0009 ppm, mixture 27 ppm + 0.0009 ppm, read-out: % Efficacy. As to the method: as §1, §2
In this study, the response of corn earworm larvae to amounts of Bacillus thuringiensis subsp. aizawai and chlorantraniliprole was observed.
as §4

The structures appear in SMILES notation. Read-outs that look alike come from different tables or passages of the source.

For the compound `CNC(=O)c1cc(Cl)cc(C)c1NC(=O)c1cc(Br)nn1-c1ncccc1Cl` [Chlorantraniliprole, chlorantraniliprole], the Emax at 0.0009 ppm came to 7% in the assay on diamondback moth larvae (24 h after treatment); 7% with diamondback moth larvae (48 h after treatment); 10% in the assay with beet armyworm larvae (24 h after treatment); 13% with beet armyworm larvae (48 h after treatment); 7% in the assay with cabbage looper larvae (24 h after treatment); 10% with cabbage looper larvae (48 h after treatment). The Emax at 0.0009 ppm with sugarcane borer larvae (24 h after treatment) worked out at 6%; with sugarcane borer larvae (48 h after treatment), 12%; in assay [1] (24 h after treatment), 3%; in assay [1] (48 h after treatment), 7%; in the assay with soybean looper larvae (24 h after treatment), 10%; in the assay on soybean looper larvae (48 h after treatment) it was 13%. The Emax at 0.0009 ppm in the assay with corn earworm larvae (24 h after treatment) was found to be 10%; in the assay with corn earworm larvae (48 h after treatment), 7%.

For the origin of these results see patent publication US9717253B2, “Synergistic Bacillus thuringiensis subsp. aizawai and chlorantraniliprole mixtures for diamondback moth, beet armyworm, soybean looper, corn earworm, cabbage looper, and southwestern corn borer control” (priority 2015, dated 2017).
